Data as given in patent US20040057955A1, “Methods of inhibition of stenosis and/or sclerosis of the aortic valve” (priority 2003, published 2004).

Key:
Format in all cases: in vivo, human
[1] = test system: patients with mild to moderate aortic stenosis; experiment: Clinical follow up (vital signs, symptoms) in ramipril pilot study; details: for HR sitting / HR supine: in bpm (unit assumed); for DBP supine / SBP supine: in mmHg
Description: (§1) Clinical Protocol: This pilot study enrolled 8 patients with mild to moderate aortic stenosis, normal left ventricular (LV) function and no history of coronary artery disease. […] Patients then were placed on the ACE inhibitor ramipril, 2.5 mg qd for 2 weeks followed by up-titration at 2 week intervals to 2.5 mg bid, 5 mg bid and 7.5 mg bid. The study lasted 8 weeks. Vital signs were repeated weekly, chemistry panels every 2 weeks and echocardiograms every 4 weeks.

[2] = test system: patients with mild to moderate aortic stenosis; experiment: Echo measures (echocardiogram) in ramipril pilot study
Description: as §1

[3] = test system: patients with mild to moderate aortic stenosis; experiment: Lab measures (chemistry panel) in ramipril pilot study
Description: as §1

[4] = Week 1, ramipril dose 2.5 × 1, n = 8, mean±SD
[5] = Week 1, ramipril dose 2.5 × 1, n = 8
[6] = Week 2, ramipril dose 2.5 × 1, n = 8, mean±SD
[7] = Week 2, ramipril dose 2.5 × 1, n = 8
[8] = Week 3, ramipril dose 2.5 × 2, n = 8, mean±SD
[9] = Week 3, ramipril dose 2.5 × 2, n = 8
[10] = Week 4, ramipril dose 2.5 × 2, n = 8, mean±SD
[11] = Week 4, ramipril dose 2.5 × 2, n = 8
[12] = Week 5, ramipril dose 5 × 2, n = 8, mean±SD
[13] = Week 5, ramipril dose 5 × 2, n = 8
[14] = Week 6, ramipril dose 5 × 2, n = 8, mean±SD
[15] = Week 6, ramipril dose 5 × 2, n = 8
[16] = Week 7, ramipril dose 7.5 × 2, n = 8, mean±SD
[17] = Week 7, ramipril dose 7.5 × 2, n = 8
[18] = Week 8 (final), ramipril dose 7.5 × 2, n = 8, mean±SD
[19] = Week 8 (final), ramipril dose 7.5 × 2, n = 8, mean±SD, listed as Ramipril
[20] = Week 8, ramipril dose 7.5 × 2, n = 8
[21] = count among n = 8, Week 1, ramipril dose 2.5 × 1
[22] = count among n = 8, Week 2, ramipril dose 2.5 × 1
[23] = count among n = 8, Week 3, ramipril dose 2.5 × 2
[24] = count among n = 8, Week 4, ramipril dose 2.5 × 2
[25] = count among n = 8, Week 5, ramipril dose 5 × 2
[26] = count among n = 8, Week 6, ramipril dose 5 × 2
[27] = count among n = 8, Week 7, ramipril dose 7.5 × 2
[28] = count among n = 8, Week 8, ramipril dose 7.5 × 2

AS-Jet (aortic stenosis jet velocity) ([2]; Week4, n = 8, mean±SD): 2.8 ± 0.2 m/sec
Cardiac output ([2]; Week4, n = 8, mean±SD): 5.9 ± 1.5 L/min
LVEF ([2]; Week4, n = 8, mean±SD): 73 ± 4%
LVOT-velocity (left ventricular outflow tract velocity) ([2]; Week4, n = 8, mean±SD): 1.1 ± 0.1 m/sec
AS-Jet (aortic stenosis jet velocity) ([2]; Week8 (final), n = 8, mean±SD): 2.8±0.3 m/sec
Cardiac output ([2]; Week8 (final), n = 8, mean±SD): 5.7 ± 1.4 L/min
LVEF ([2]; Week8 (final), n = 8, mean±SD): 71±7%
LVOT-velocity (left ventricular outflow tract velocity) ([2]; Week8 (final), n = 8, mean±SD): 1.0±0.2 m/sec
Creatinine ([3]; Week 1, n = 8, mean±SD): 1.1 ± 0.3 mg/dL
Glucose ([3]; Week 1, n = 8, mean±SD): 97 ± 29 mg/dL
Potassium ([3]; Week 1, n = 8, mean±SD): 4.3 ± 0.3 mEq/L
Creatinine ([3]; Week 3, n = 8, mean±SD): 1.2 ± 0.4 mg/dL
Glucose ([3]; Week 3, n = 8, mean±SD): 96 ± 15 mg/dL
Potassium ([3]; Week 3, n = 8, mean±SD): 4.4 ± 0.4 mEq/L
Creatinine ([3]; Week 5, n = 8, mean±SD): 1.1 ± 0.3 mg/dL
Glucose ([3]; Week 5, n = 8, mean±SD): 91 ± 18 mg/dL
Potassium ([3]; Week 5, n = 8, mean±SD): 4.3 ± 0.5 mEq/L
Creatinine ([3]; Week 7, n = 8, mean±SD): 1.1 ± 0.3 mg/dL
Glucose ([3]; Week 7, n = 8, mean±SD): 91 ± 19 mg/dL
Potassium ([3]; Week 7, n = 8, mean±SD): 4.4 ± 0.5 mEq/L
Creatinine ([3]; final measurement, mean±SD): 1.1 ± 0.3 mg/dL
Glucose ([3]; final measurement, mean±SD): 91 ± 18 mg/dL
Potassium ([3]; final measurement, mean±SD): 4.3 ± 0.5 mEq/L
Structure (SMILES): CCOC(=O)[C@H](CCc1ccccc1)N[C@@H](C)C(=O)N1[C@H](C(=O)O)C[C@@H]2CCC[C@@H]21 [ramipril]
DBP sitting [1, 4]: 67 ± 9 mmHg
SBP sitting [1, 4]: 109 ± 17 mmHg
HR sitting [1, 5]: 60 ± 9
HR supine [1, 5]: 58 ± 5
DBP supine [1, 5]: 62 ± 5
SBP supine [1, 5]: 106 ± 15
DBP sitting [1, 6]: 65 ± 8 mmHg
SBP sitting [1, 6]: 113 ± 16 mmHg
HR sitting [1, 7]: 61 ± 8
HR supine [1, 7]: 63 ± 6
DBP supine [1, 7]: 60 ± 9
SBP supine [1, 7]: 110 ± 12
DBP sitting [1, 8]: 65 ± 8 mmHg
SBP sitting [1, 8]: 111 ± 15 mmHg
HR sitting [1, 9]: 62 ± 8
HR supine [1, 9]: 62 ± 11
DBP supine [1, 9]: 60 ± 7
SBP supine [1, 9]: 107 ± 14
DBP sitting [1, 10]: 64 ± 5 mmHg
SBP sitting [1, 10]: 112 ± 16 mmHg
HR sitting [1, 11]: 65 ± 7
HR supine [1, 11]: 64 ± 7
DBP supine [1, 11]: 64 ± 8
SBP supine [1, 11]: 111 ± 14
DBP sitting [1, 12]: 67 ± 9 mmHg
SBP sitting [1, 12]: 116 ± 17 mmHg
HR sitting [1, 13]: 62 ± 6
HR supine [1, 13]: 61 ± 7
DBP supine [1, 13]: 69 ± 10
SBP supine [1, 13]: 116 ± 17
DBP sitting [1, 14]: 65 ± 4 mmHg
SBP sitting [1, 14]: 118 ± 20 mmHg
HR sitting [1, 15]: 61 ± 8
HR supine [1, 15]: 61 ± 5
DBP supine [1, 15]: 65 ± 6
SBP supine [1, 15]: 114 ± 20
DBP sitting [1, 16]: 70 ± 10 mmHg
SBP sitting [1, 16]: 121 ± 13 mmHg
HR sitting [1, 17]: 61 ± 4
HR supine [1, 17]: 61 ± 6
DBP supine [1, 17]: 72 ± 6
SBP supine [1, 17]: 121 ± 13
DBP sitting [1, 18]: 65±10 mmHg
SBP sitting [1, 18]: 114±14 mmHg
DBP sitting [1, 19]: 65 ± 10 mmHg
SBP sitting [1, 19]: 114 ± 14 mmHg
HR sitting ([1]; Week 8 (final), ramipril dose 7.5 × 2, n = 8): 62±3
HR sitting ([1]; Week 8 (final), ramipril dose 7.5 × 2, n = 8, listed as Ramipril): 62 ± 3
HR supine [1, 20]: 62 ± 3
DBP supine [1, 20]: 63 ± 6
SBP supine [1, 20]: 120 ± 15
Cough [1, 21]: 0
Ghest pain [1, 21]: 0
Hyper-sensitivity [1, 21]: 0
Light-headedness [1, 21]: 0
Cough [1, 22]: 0
Ghest pain [1, 22]: 0
Hyper-sensitivity [1, 22]: 0
Light-headedness [1, 22]: 0
Cough [1, 23]: 0
Ghest pain [1, 23]: 0
Hyper-sensitivity [1, 23]: 0
Light-headedness [1, 23]: 0
Cough [1, 24]: 0
Ghest pain [1, 24]: 0
Hyper-sensitivity [1, 24]: 0
Light-headedness [1, 24]: 0
Cough [1, 25]: 0
Ghest pain [1, 25]: 0
Hyper-sensitivity [1, 25]: 0
Light-headedness [1, 25]: 0
Cough [1, 26]: 2
Ghest pain [1, 26]: 1
Hyper-sensitivity [1, 26]: 0
Light-headedness [1, 26]: 0
Cough [1, 27]: 0
Ghest pain [1, 27]: 0
Hyper-sensitivity [1, 27]: 0
Light-headedness [1, 27]: 0
Cough [1, 28]: 1
Ghest pain [1, 28]: 1
Hyper-sensitivity [1, 28]: 0
Light-headedness [1, 28]: 1
